Measurements from US20080280920A1, “Plasminogen Activator Inhibitor-1 Inhibitors” (priority 2005, published 2008).

Key:
Type in all cases: cell-based, human
[1] = tested on: HL-60(TB); test: NCI anticancer screen, HL-60(TB); conditions: Leukemia, 48 h
[2] = tested on: K-562; test: NCI anticancer screen, K-562; conditions: K-562, Leukemia, 48 h
[3] = tested on: MOLT-4; test: NCI anticancer screen, MOLT-4; conditions: MOLT-4, Leukemia, 48 h
[4] = tested on: A549/ATCC; test: NCI anticancer screen, A549/ATCC; conditions: Non-Small Cell Lung, 48 h
[5] = tested on: NCI-H226; test: NCI anticancer screen, NCI-H226; conditions: NCI-H226, Non-Small Cell Lung, 48 h
[6] = tested on: COLO 205; test: NCI anticancer screen, COLO 205; conditions: COLO 205, Colon, 48 h
[7] = tested on: HCC-2998; test: NCI anticancer screen, HCC-2998; conditions: HCC-2998, Colon, 48 h
[8] = tested on: HCT-116; test: NCI anticancer screen, HCT-116; conditions: HCT-116, Colon, 48 h
[9] = tested on: HCT-15; test: NCI anticancer screen, HCT-15; conditions: HCT-15, Colon, 48 h
[10] = tested on: HT29; test: NCI anticancer screen, HT29; conditions: HT29, Colon, 48 h
[11] = tested on: SF-268; test: NCI anticancer screen, SF-268; conditions: SF-268, CNS, 48 h
[12] = tested on: SF-539; test: NCI anticancer screen, SF-539; conditions: SF-539, CNS, 48 h
[13] = tested on: SNB-75; test: NCI anticancer screen, SNB-75; conditions: SNB-75, CNS, 48 h
[14] = tested on: MALME-3M; test: NCI anticancer screen, MALME-3M; conditions: Melanoma, 48 h
[15] = tested on: M14; test: NCI anticancer screen, M14; conditions: M14, Melanoma, 48 h
[16] = tested on: SK-MEL-28; test: NCI anticancer screen, SK-MEL-28; conditions: SK-MEL-28, Melanoma, 48 h
[17] = tested on: SK-MEL-5; test: NCI anticancer screen, SK-MEL-5; conditions: SK-MEL-5, Melanoma, 48 h
[18] = tested on: UACC-62; test: NCI anticancer screen, UACC-62; conditions: UACC-62, Melanoma, 48 h
[19] = tested on: OVCAR-4; test: NCI anticancer screen, OVCAR-4; conditions: OVCAR-4, Ovarian, 48 h
[20] = tested on: OVCAR-5; test: NCI anticancer screen, OVCAR-5; conditions: OVCAR-5, Ovarian, 48 h
[21] = tested on: OVCAR-8; test: NCI anticancer screen, OVCAR-8; conditions: OVCAR-8, Ovarian, 48 h
[22] = tested on: SK-OV-3; test: NCI anticancer screen, SK-OV-3; conditions: SK-OV-3, Ovarian, 48 h
[23] = tested on: 786-0; test: NCI anticancer screen, 786-0; conditions: 786-0, Renal, 48 h
[24] = tested on: A498; test: NCI anticancer screen, A498; conditions: A498, Renal, 48 h
[25] = tested on: CAKI-1; test: NCI anticancer screen, CAKI-1; conditions: CAKI-1, Renal, 48 h
[26] = tested on: RXF 393; test: NCI anticancer screen, RXF 393; conditions: RXF 393, Renal, 48 h
[27] = tested on: SN12C; test: NCI anticancer screen, SN12C; conditions: Renal, 48 h
[28] = tested on: PC-3; test: NCI anticancer screen, PC-3; conditions: PC-3, Prostate, 48 h
[29] = tested on: MCF7; test: NCI anticancer screen, MCF7; conditions: MCF7, Breast, 48 h
[30] = tested on: NCI/ADR-RES; test: NCI anticancer screen, NCI/ADR-RES; conditions: Breast, 48 h
[31] = tested on: HS 578T; test: NCI anticancer screen, HS 578T; conditions: Breast, 48 h
[32] = tested on: MDA-MB-435; test: NCI anticancer screen, MDA-MB-435; conditions: MDA-MB-435, Breast, 48 h
[33] = tested on: BT-549; test: NCI anticancer screen, BT-549; conditions: BT-549, Breast, 48 h
[34] = tested on: T-47D; test: NCI anticancer screen, T-47D; conditions: Breast, 48 h
[35] = Homo sapiens, read-out: LC50 (the source's name)

Compound `COc1cc(CNCC2CCN(C(=O)OC(C)(C)C)CC2)cc(CN2CCN(c3ccccn3)CC2)c1O` [Compound Q012132, 2-Methoxy-4-({[(N-t-butyloxycarbonylpiperidin-4-yl)methyl]amino}methyl)-6-[(4-pyridin-2-ylpiperazin-1-yl)methyl]phenol] has a GI50 ([1]; Homo sapiens) of 14.8 µM, a CC50 [1, 35] of 72.6 µM and a TGI [1] of 32.8 µM. For the same compound, the GI50 ([2]; Homo sapiens, K562) was 5.21 µM, the CC50 ([2]; Homo sapiens, K562, read-out: LC50 (the source's name)) was 73.5 µM and the TGI [2] was 19.6 µM. For the same compound, the GI50 ([3]; Homo sapiens) was 13 µM, the CC50 [3, 35] was greater than 100 µM and the TGI [3] was 42.4 µM. For the same compound, the GI50 ([4]; Homo sapiens) was 31.2 µM, the LC50 ([4]; Homo sapiens) was greater than 100 µM and the TGI [4] was greater than 100 µM. For the same compound, the GI50 ([5]; Homo sapiens) was 65.5 µM, the LC50 (concentration giving 50% net cell kill) ([5]; Homo sapiens) was greater than 100 µM and the TGI [5] was greater than 100 µM. For the same compound, the TGI [6] was 34.8 µM, the GI50 ([6]; Homo sapiens) was 16.8 µM and the CC50 [6, 35] was 72.1 µM. The TGI [7] was 28.9 µM, the GI50 ([7]; Homo sapiens) was 14.5 µM and the LC50 ([7]; Homo sapiens) was 57.7 µM. It also gave a TGI [8] of 22.6 µM, a GI50 ([8]; Homo sapiens) of 10.8 µM and an LC50 (50% lethal concentration) ([8]; Homo sapiens) of 47.6 µM. The TGI [9] was 36.9 µM, the GI50 ([9]; Homo sapiens) was 16.8 µM and the CC50 [9, 35] was 80.8 µM. The TGI [10] was 16.7 µM, the GI50 ([10]; Homo sapiens, HT-29) was 3.11 µM and the CC50 ([10]; Homo sapiens, HT-29, read-out: LC50 (the source's name)) was 63 µM. For the same compound, the GI50 ([11]; Homo sapiens) was 18.5 µM, the LC50 ([11]; Homo sapiens) was greater than 100 µM and the TGI [11] was 44.1 µM. It also gave a GI50 ([12]; Homo sapiens) of 14.6 µM, a CC50 [12, 35] of 54.6 µM and a TGI [12] of 28.2 µM. It also gave a GI50 ([13]; Homo sapiens) of 22.3 µM, an LC50 (concentration killing 50% of cells) ([13]; Homo sapiens) greater than 100 µM and a TGI [13] of 49.8 µM. It also gave a GI50 ([14]; Homo sapiens) of 15.7 µM, a CC50 [14, 35] of 65.5 µM and a TGI [14] of 32.0 µM. For the same compound, the GI50 ([15]; Homo sapiens) was 5.8 µM, the CC50 [15, 35] was 41.9 µM and the TGI [15] was 17.5 µM. For the same compound, the GI50 ([16]; Homo sapiens) was 16.8 µM, the CC50 [16, 35] was 75.5 µM and the TGI [16] was 35.6 µM. The GI50 ([17]; Homo sapiens) was 13.1 µM, the CC50 [17, 35] was 51.5 µM and the TGI [17] was 26.0 µM. For the same compound, the GI50 ([18]; Homo sapiens) was 17.2 µM, the CC50 [18, 35] was 64.3 µM and the TGI [18] was 33.3 µM. It also gave a GI50 ([19]; Homo sapiens) of 47.8 µM, a CC50 [19, 35] greater than 100 µM and a TGI [19] greater than 100 µM. It also gave a GI50 ([20]; Homo sapiens) of 29.3 µM, a CC50 [20, 35] greater than 100 µM and a TGI [20] greater than 100 µM. It also gave a GI50 ([21]; Homo sapiens) of 22.3 µM, a CC50 [21, 35] greater than 100 µM and a TGI [21] of 61.8 µM. The GI50 ([22]; Homo sapiens) was 29.4 µM, the CC50 [22, 35] was greater than 100 µM and the TGI [22] was 98.8 µM. For the same compound, the TGI [23] was 28.2 µM, the GI50 ([23]; Homo sapiens) was 14.9 µM and the CC50 [23, 35] was 53.1 µM. It also gave a TGI [24] of 36.3 µM, a GI50 ([24]; Homo sapiens) of 17.8 µM and a CC50 [24, 35] of 74.1 µM. The TGI [25] was 51.7 µM, the GI50 ([25]; Homo sapiens) was 22.8 µM and the CC50 [25, 35] was greater than 100 µM. The GI50 ([26]; Homo sapiens) was 13.6 µM, the CC50 [26, 35] was 67.2 µM and the TGI [26] was 30.2 µM. It also gave a CC50 [27, 35] greater than 100 µM, a TGI [27] greater than 100 µM and a GI50 ([28]; Homo sapiens) of 21.8 µM. It also gave a CC50 [28, 35] greater than 100 µM, a TGI [28] of 81.1 µM and a GI50 ([29]; Homo sapiens) of 18.6 µM. For the same compound, the CC50 [29, 35] was 73 µM, the TGI [29] was 36.9 µM and the TGI [30] was 79.2 µM. The GI50 ([30]; Homo sapiens) was 21.4 µM, the CC50 [30, 35] was greater than 100 µM and the TGI [31] was 38.2 µM. For the same compound, the GI50 ([31]; Homo sapiens) was 16.4 µM, the CC50 [31, 35] was 88.6 µM and the GI50 ([32]; Homo sapiens) was 18.2 µM. For the same compound, the CC50 [32, 35] was 73.1 µM, the TGI [32] was 36.4 µM and the TGI [33] was 28.9 µM. For the same compound, the GI50 ([33]; Homo sapiens) was 14.6 µM, the CC50 [33, 35] was 57.1 µM and the TGI [34] was 44.4 µM. The GI50 ([34]; Homo sapiens, T47D) was 16.2 µM and the CC50 ([34]; Homo sapiens, T47D, read-out: LC50 (the source's name)) was greater than 100 µM.
